From ChEMBL document CHEMBL6153083, “Synthesis, Structural Modification, and Antismall Cell Lung Cancer Activity of 3-Arylisoquinolines with Dual Inhibitory Activity on Topoisomerase I and II” (J Med Chem, 2025)
Calls of active or inactive are those of the source. The calls are words filed in the database; no cut-off is given here.

Columns and labels:
NCI-H1048 = assay: Induction of mitochondrial dysfunction in human NCI-H1048 cells assessed as increase in ROS level at 1 to 8 uM incubated for 48 hrs by DCFH-DA staining based flow cytometry; type: functional, cell-based; conditions: dose 1-8 µM
NCI-H446 = assay: Induction of early apoptosis in human NCI-H446 cells incubated for 48 hrs by Annexin V-FITC/PI staining based flow cytometry; type: functional, cell-based; conditions: dose 1-8 µM

Compound: CC1CC(C)CN(Cc2cc3c(cc2-c2cc4ccc5c(c4cn2)OCO5)OCO3)C1 (configuration not stated)
- Activity (NCI-H1048): Active
- Activity (NCI-H446): Dose-dependent-effect; Exhibited Stronger Effect Than Etoposide
